According to patent US9278065B2, “Delivery systems for solubilising water-insoluble pharmaceutical active ingredients” (EMS S/A, priority 2007, dated 2016):

Assay: Particle size (Z-average) of the formulation mixed with water 1:50
Assay type: physicochemical
Method: The formulation according to present invention is prepared when the non-ionic surfactant mixture is thoroughly mixed with the solution of the active ingredient in the water-miscible organic solvent/co-solvent.
The present invention will now be illustrated by the following examples. It is understood, however, that such examples are provided for illustration only, and the invention is not intended to be limited by the examples. The formulation based on the system employed in the examples can be formed by any suitable method known in the art. In the examples the formulation was mixed with water at a ratio of 1:50 formulation: water to generate the system and measure the particle size formed in water. The particle size was measured by the method described in Pharmacopea Forum—2001 vol 27 (4) page 2724.

increase of particle Z-average (10% tioconazole formulation omitting DEGEE, compared with complete formulation containing DEGEE, PEG Oleate, polyethoxylated castor oil) | particle size of emulsion (10% tioconazole formulation omitting polyethoxylated castor oil, diluted 1:50 in water) | Z-average (0.5% tacrolimus in ethanol with DEGEE / PEG Oleate / polyethoxylated castor oil as per Table 3, diluted 1:50 in water) | Compound
10% | 450 nm |  | Clc1ccc(C(Cn2ccnc2)OCc2ccsc2Cl)c(Cl)c1 (stereo not drawn) [Tioconazole]
 |  | 32 nm | C=CC[C@@H]1/C=C(\C)C[C@H](C)C[C@H](OC)[C@H]2O[C@@](O)(C(=O)C(=O)N3CCCC[C@H]3C(=O)O[C@H](/C(C)=C/[C@@H]3CC[C@@H](O)[C@H](OC)C3)[C@H](C)[C@@H](O)CC1=O)[C@H](C)C[C@@H]2OC [tacrolimus]
